{"source": "paper PMC7144330", "about": "“2-Thiopyrimidine/chalcone hybrids: design, synthesis, ADMET prediction, and anticancer evaluation as STAT3/STAT5a inhibitors” (Journal of Enzyme Inhibition and Medicinal Chemistry, 2020)", "key": {"in vitro": {"experiment": "in vitro", "conditions": "human"}, "STAT5a": {"target": "T1, STAT5a (Homo sapiens, UniProt P42229)", "T1 construct": "endogenous in cells; host or cells: K-562 and MCF-7 cells (nuclear extracts)", "T1 sequence (P42229 1-794)": "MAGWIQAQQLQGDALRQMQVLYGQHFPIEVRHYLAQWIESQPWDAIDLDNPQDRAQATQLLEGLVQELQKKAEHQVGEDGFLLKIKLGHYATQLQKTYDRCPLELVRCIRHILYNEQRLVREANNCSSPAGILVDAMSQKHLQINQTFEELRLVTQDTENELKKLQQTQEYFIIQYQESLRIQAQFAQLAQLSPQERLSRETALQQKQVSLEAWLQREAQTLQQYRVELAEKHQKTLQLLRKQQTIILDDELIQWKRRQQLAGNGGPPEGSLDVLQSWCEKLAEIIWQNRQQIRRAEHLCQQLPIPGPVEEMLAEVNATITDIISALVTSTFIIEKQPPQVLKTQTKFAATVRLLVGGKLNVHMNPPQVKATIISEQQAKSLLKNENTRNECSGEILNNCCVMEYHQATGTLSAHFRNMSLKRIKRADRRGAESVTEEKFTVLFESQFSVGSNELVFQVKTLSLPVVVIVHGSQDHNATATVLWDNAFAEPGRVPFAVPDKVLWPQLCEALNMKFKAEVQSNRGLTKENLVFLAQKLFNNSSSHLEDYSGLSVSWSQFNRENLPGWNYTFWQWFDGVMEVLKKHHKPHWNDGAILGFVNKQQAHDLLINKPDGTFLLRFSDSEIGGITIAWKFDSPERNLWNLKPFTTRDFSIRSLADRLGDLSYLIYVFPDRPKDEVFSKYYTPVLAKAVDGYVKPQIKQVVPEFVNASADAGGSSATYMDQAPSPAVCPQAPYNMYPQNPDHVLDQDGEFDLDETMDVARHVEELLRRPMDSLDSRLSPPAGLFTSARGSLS", "experiment": "TransAM STAT5a activation assay on nuclear extracts of treated cells", "type": "cell-based", "conditions": "24 h, read-out: Inhibition IC50 (µM) STAT5a", "method": "(§1) Both K-562 and MCF-7 cell lines were seeded overnight in plates, then 10 µM of test compounds (9a and 9r for MCF-7 cells; 9d, 9f, and 9n for K-562 cells) or reference drug pacritinib was added for 24 h. A nuclear extract kit was used to extract nuclear fractions from treated cells using the manufacture’s procedure. STAT3 and STAT5a activations were analysed using the collected nuclear extracts (20 µg) through TransAM STAT3 and STAT5a activation assay guided by the manufacture’s protocol. The obtained results were expressed in the form of mean ± SD. Each experiment was done in triplicate.\n(§2) Pacritinib, an inhibitor for both STAT3 and STAT5a[49] was used in this study as a reference drug."}, "MCF-7": {"tested_on": "MCF-7", "experiment": "MTT cytotoxic assay, breast MCF-7 cell line", "type": "cell-based, human", "conditions": "Homo sapiens, MCF7, read-out: (IC50 μM)±SD MCF-7", "method": "(§3) To investigate cytotoxic activity of the final target compounds 9a–r, MTT assay was performed. Three different cell lines were used, leukaemia (K-562), breast (MCF-7) and colon (HT-29) cell lines. Cisplatin and erlotinib were the reference drugs used in this study.\n(§4) All target compounds 9a–r were screened against three different cancer cell lines, leukaemia (K-562), breast (MCF-7), and colon (HT-29). MTT assay was used. Both cisplatin and erlotinib were used as the reference drugs. Cytotoxicity results are recorded in Table 1."}, "STAT3 [1]": {"target": "T2, STAT3 (Homo sapiens, UniProt P40763)", "T2 construct": "endogenous in cells; host or cells: K-562 and MCF-7 cells (nuclear extracts)", "T2 sequence (P40763 whole entry)": "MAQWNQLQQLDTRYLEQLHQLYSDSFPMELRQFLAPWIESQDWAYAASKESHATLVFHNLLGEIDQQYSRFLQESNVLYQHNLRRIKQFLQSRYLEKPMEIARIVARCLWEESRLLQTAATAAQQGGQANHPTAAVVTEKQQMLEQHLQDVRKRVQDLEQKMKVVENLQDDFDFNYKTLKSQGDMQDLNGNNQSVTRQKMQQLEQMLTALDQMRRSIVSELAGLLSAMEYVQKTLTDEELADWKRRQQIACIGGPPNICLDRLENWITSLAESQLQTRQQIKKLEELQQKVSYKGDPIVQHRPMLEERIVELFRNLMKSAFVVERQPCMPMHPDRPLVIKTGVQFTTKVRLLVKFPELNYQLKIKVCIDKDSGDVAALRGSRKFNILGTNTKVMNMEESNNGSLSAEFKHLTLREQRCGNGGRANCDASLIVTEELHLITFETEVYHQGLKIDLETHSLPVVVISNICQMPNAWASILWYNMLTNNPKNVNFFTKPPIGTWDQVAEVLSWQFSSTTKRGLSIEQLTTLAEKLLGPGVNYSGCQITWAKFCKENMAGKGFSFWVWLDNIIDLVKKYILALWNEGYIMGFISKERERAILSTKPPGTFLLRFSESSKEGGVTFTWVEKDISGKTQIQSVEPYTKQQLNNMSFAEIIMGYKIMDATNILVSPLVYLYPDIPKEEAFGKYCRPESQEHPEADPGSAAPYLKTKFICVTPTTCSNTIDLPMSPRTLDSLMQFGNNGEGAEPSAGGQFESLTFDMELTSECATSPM", "experiment": "TransAM STAT3 activation assay on nuclear extracts of treated cells", "type": "cell-based", "conditions": "24 h, read-out: Inhibition IC50 (µM) STAT3", "method": "as §1, §2"}, "HT-29": {"tested_on": "HT-29", "experiment": "MTT cytotoxic assay, colon HT-29 cell line", "type": "cell-based", "conditions": "Homo sapiens, read-out: (IC50 μM)±SD HT-29", "method": "as §3, §4"}, "K-562": {"tested_on": "K-562", "experiment": "MTT cytotoxic assay, leukaemia K-562 cell line", "type": "cell-based", "conditions": "Homo sapiens, K562, read-out: (IC50 μM)±SD K-562", "method": "as §3, §4"}, "STAT3 [2]": {"tested_on": "STAT3", "parameters": "method as in PMID 20067773", "conditions": "breast cancer cells; read-out: EC50, inhibition of STAT3 function; cited from earlier work"}, "STAT3 [3]": {"tested_on": "STAT3", "parameters": "method as in PMID 20067773", "conditions": "myeloma cancer cells; read-out: EC50, inhibition of STAT3 function; cited from earlier work"}, "human leukaemia cells": {"tested_on": "human leukaemia cells", "parameters": "method as in earlier work", "conditions": "read-out: CC50, cytotoxic activity; cited from earlier work"}}, "note": "Like-named read-outs stand apart in the source and are kept apart here.", "data": [{"compound": "COc1ccc(/C=C/C(=O)c2ccc(NC(=O)CSc3nc(-c4ccc(Cl)cc4)cc(-c4ccc([N+](=O)[O-])cc4)n3)cc2)cc1OC", "note": "[Compound 9n, (ZE)-2-[4-(4-Chlorophenyl)-6-(4-nitrophenyl)pyrimidin-2-ylthio]-N-{4-[3-(3,4-dimethoxyphenyl)acryloyl]phenyl}acetamide]", "values": [{"measurement": "IC50", "setting": "in vitro", "value": "29.2 to 40.1", "unit": "µM"}, {"measurement": "melting point", "value": "147 to 149", "unit": "°C"}, {"measurement": "IC50", "setting": "STAT5a; K562 cells", "value": "50.7 ± 1.26", "unit": "µM"}, {"measurement": "IC50", "setting": "MCF-7", "value": "17.4 ± 0.75", "unit": "µM"}, {"measurement": "IC50", "setting": "STAT3 [1]; K562 cells", "value": "113 ± 3.22", "unit": "µM"}, {"measurement": "IC50", "setting": "HT-29", "value": "2.1 ± 0.06", "unit": "µM"}, {"measurement": "IC50", "setting": "K-562", "value": "1.05 ± 0.02", "unit": "µM"}]}, {"compound": "COc1cc(/C=C/C(=O)c2ccc(NC(=O)CSc3nc(-c4ccc(Cl)cc4)cc(-c4ccc(OCCCl)cc4)n3)cc2)cc(OC)c1OC", "note": "[Compound 9r]", "values": [{"measurement": "IC50", "setting": "in vitro", "value": "29.2 to 40.1", "unit": "µM"}, {"measurement": "melting point", "value": "221 to 223", "unit": "°C"}, {"measurement": "IC50", "setting": "STAT5a; MCF7 cells", "value": "63.2 ± 1.57", "unit": "µM"}, {"measurement": "IC50", "setting": "MCF-7", "value": "1.37 ± 0.07", "unit": "µM"}, {"measurement": "IC50", "setting": "STAT3 [1]; MCF7 cells", "value": "149 ± 3.81", "unit": "µM"}, {"measurement": "IC50", "setting": "HT-29", "value": "4.74 ± 0.27", "unit": "µM"}, {"measurement": "IC50", "setting": "K-562", "value": "10.7 ± 0.77", "unit": "µM"}]}, {"compound": "Cc1ccc(S(=O)(=O)N(C)CC(=O)N(Cc2ccc(C3CCCCC3)cc2)c2ccc(C(=O)O)c(O)c2)cc1", "note": "[Compound S3I-201.1066]", "values": [{"measurement": "EC50", "setting": "STAT3 [2]", "value": "[…]"}, {"measurement": "EC50", "setting": "STAT3 [3]", "value": "[…]"}]}, {"compound": "Cc1cccc(Nc2ccccc2C(=O)Nc2ccc(C(=O)/C=C/c3ccc(Cl)cc3)cc2)c1C", "note": "[chloro-derivative of compound X]", "values": [{"measurement": "CC50", "setting": "human leukaemia cells", "value": 2.17, "unit": "µM"}]}, {"compound": "Cc1cccc(Nc2ccccc2C(=O)Nc2ccc(C(=O)/C=C/c3ccc(N(C)C)cc3)cc2)c1C", "note": "[dimethylamino-derivative of compound X]", "values": [{"measurement": "CC50", "setting": "human leukaemia cells", "value": 2.06, "unit": "µM"}]}]}
